Square brackets hold non-standard residues; d marks the D form. Peptide text beside a SMILES is read from it. Gly(N(CH2)2(3-indolyl)) = O=C(O)CNCCc1c[nH]c2ccccc12; Nspe = C[C@H](NCC(=O)O)c1ccccc1; Nlys = NCCCCNCC(=O)O
Tests used:
[1] = S9 fraction stability assay; type: in vitro ADME; settings: NADPH, 100 mM Tris-HCl pH 7.4, […] MgCl2, 37 °C, 24 h incubation, HPLC or LC-MS, compared to pexiganan
Procedure: 200 μL NPN dye was added to wells of a 96 well plate to produce a final concentration of 10 μM, and the background fluorescence was recorded (λex = 350 nm, λem = 420 nm). Aliquots of peptoids were added to the well, and fluorescence was recorded as a function of time until there was no further increase in fluorescence. Increases of the permeability of the outer membrane after the addition of peptoids was reflected by increased fluorescence values as a result of NPN incorporation into the membrane.
The permeability of the inner membrane was determined using E. coli ML-35 cells […]
The intact bacterial inner membrane is non-permeable to o-nitrophenyl-β-D-galactopyranoside (OPNG), a chromogenic substrate of the β-galactosidase.
Following damage to the inner membrane, OPNG enters the cells and is metabolized by β-galactosidase creating a chromogenic […]. […] The hydrolysis of ONPG and generation of o-nitrophenol over time were monitored as absorbance change at 405 nm following the addition of peptoids.
The resistance of peptoids against metabolic enzyme degradation was measured by an S9 fraction assay. […] Quenched samples were centrifuged for 5 minutes at 1200 rpm and analyzed by analytical HPLC or LC-MS.
Protein extraction and quantification using Bradford assay […]

P. aeruginosa MDR-198 = type: cell-based
E. coli ATCC 25922 = test: Bacterial respiration assay (oxygen consumption rate); type: cell-based; settings: at MIC concentration, Seahorse XFe96, M9 + 10 mM glucose
Procedure: 11. Bacterial respiration assay
Figure S12. Real-time changes in oxygen consumption rate (OCR, in picomoles of molecular oxygen per minute) in response to treatment with peptoid 29, ampicillin (Amp), and chloramphenicol (Cam) in E. coli measured on a Seahorse XFe 96 extracellular flux analyzer.
OCR changes in cells treated with 29 over time (2.5 min intervals). b) Comparison of OCR responses induced by 29, Amp, and Cam treatment detected at 2.5 min intervals. The vertical line with azure color indicates the injection point of each antibiotic into the cultures. All data represent the mean ± SEM of 5-8 replicates.
Bacterial respiration assays
Cellular oxygen consumption rate (OCR) of E. coli ATCC 25922 was measured using a Seahorse XFe96 Extracellular Flux Analyzer (Agilent) as published previously.[9] Briefly, after overnight culture in LB, bacterial cells were diluted 1:200 into fresh M9 media (M6030, Sigma) and incubated for an additional 3 h at 37 °C. To conduct the measurements, bacteria were diluted to OD600 of 0.02 in M9 supplemented with 10 mM glucose. 90 μL of this cell suspension was loaded into a 96-well microplate precoated with poly-D-lysine (100 μg/mL, Sigma). […] OCR values were quantified every 2.5 min (mix and measure for 30 sec and 2 min, respectively) for an additional 48 cycles, and normalized to bacterial density […]

[2] = Protein and DNA aggregation assay (thioflavin T); type: biochemical; settings: 29 25 µM, protein 500 µg mL^−1, gDNA 50 ng mL^−1, Th T 25 µM, 37 °C 1 h, ex 450 / em 485 nm
Procedure: bacteria were pelleted at 4,000 rpm for 10 minutes at 8 °C. The supernatant was removed and the pellet was suspended in 2 mL of PBS buffer. This suspension was transferred to a 15 mL conical tube and cooled on ice. The culture was sonicated for 5 sec and cooled again for 55 sec. This cycle was repeated 15 times. The lysate was centrifuged at 4,000 rpm for 20 minutes at 8 °C. The supernatant was transferred into a fresh 2 mL Eppendorf tube and stored at -80 °C. Protein quantification was performed using TaKaRa Bradford Protein Assay Kit according to the manufacturer’s instructions.
DNA extraction and quantification
DNA extraction was performed using TaKaRa MiniBEST Bacteria Genomic DNA Extraction Kit Ver. 3.0 according to the manufacturer’s instructions.
Protein and DNA aggregation assay
The flocculation of the proteins and DNA caused by peptoids was confirmed by the change in the fluorescent intensity of thioflavin T (Th T) that detects aggregated proteins and double stranded DNA. The appropriate combination of 500 μg/mL of protein solution, 50 ng/mL of genomic DNA, 25 μM of Th T, and 25 μM of peptoid 29 were added into a black 96-well plate in triplicate and incubated at 37 °C for an hour. After incubation, the fluorescence was measured using a microplate reader (excitation wavelength = 450 nm, emission wavelength = […]
[1] […]

Row | Structure (SMILES) | stability in human liver S9 fraction [1] | MIC P. aeruginosa MDR-198 (P. aeruginosa MDR-198) | time after which OCR converged to zero (E. coli ATCC 25922) | Th T fluorescence of protein and protein/gDNA samples [2]
1 | C[C@@H](c1ccccc1)N(CC(N)=O)C(=O)CN(C(=O)CN(CCCCN)C(=O)CN(C(=O)CN(C(=O)CN(CCCCN)C(=O)CN(C(=O)CN(C(=O)CN(CCCCN)C(=O)CN(C(=O)CN(C(=O)CNCCCCN)[C@@H](C)c1ccccc1)[C@@H](C)c1ccccc1)[C@@H](C)c1ccccc1)[C@@H](C)c1ccccc1)[C@@H](C)c1ccccc1)[C@@H](C)c1ccccc1)[C@@H](C)c1ccccc1 [peptoid 1, reference compound] (H-[Nlys][Nspe][Nspe][Nlys][Nspe][Nspe][Nlys][Nspe][Nspe][Nlys][Nspe][Nspe]-NH2) | superior stability | – | – | –
2 | C[C@@H](c1ccccc1)N(CC(=O)N(CCCCN)CC(=O)N(CC(=O)N(CC(=O)N(CCCCN)CC(=O)N(CC(=O)N(CC(=O)N(CCCCN)CC(=O)N(CCc1c[nH]c2ccccc12)CC(=O)N(CCc1c[nH]c2ccccc12)CC(N)=O)[C@@H](C)c1ccccc1)[C@@H](C)c1ccccc1)[C@@H](C)c1ccccc1)[C@@H](C)c1ccccc1)C(=O)CN(C(=O)CNCCCCN)[C@@H](C)c1ccccc1 [peptoid 11] (H-[Nlys][Nspe][Nspe][Nlys][Nspe][Nspe][Nlys][Nspe][Nspe][Nlys][Gly(N(CH2)2(3-indolyl))][Gly(N(CH2)2(3-indolyl))]-NH2) | – | 6.3 to 12.5 µM | – | –
3 | C[C@@H](c1ccccc1)N(CC(=O)N(CCCCN)CC(=O)N(CCc1c[nH]c2ccccc12)CC(=O)N(CCc1c[nH]c2ccccc12)CC(N)=O)C(=O)CN(CCCCN)C(=O)CN(CCCCN)C(=O)CN(C(=O)CN(C(=O)CN(CCCCN)C(=O)CN(C(=O)CN(C(=O)CNCCCCN)[C@@H](C)c1ccccc1)[C@@H](C)c1ccccc1)[C@@H](C)c1ccccc1)[C@@H](C)c1ccccc1 [peptoid 29] (H-[Nlys][Nspe][Nspe][Nlys][Nspe][Nspe][Nlys][Nlys][Nspe][Nlys][Gly(N(CH2)2(3-indolyl))][Gly(N(CH2)2(3-indolyl))]-NH2) | superior stability | 6.3 to 12.5 µM | 30 min | significant increases in fluorescent emission

Reference: article PMC10460844, “Real‐Time Monitoring of Multitarget Antimicrobial Mechanisms of Peptoids Using Label‐Free Imaging with Optical Diffraction Tomography” (Advanced Science, 2023)
